Data: patent US20030166601A1, “Novel colloid synthetic vectors for gene therapy” (priority 1999, published 2003)
Blank lines part the entries; values can stand above or below the molecule they belong to.

What was measured:
[1] = system: cultured cells; test: Transfection of cultured cells, luciferase activity; type: cell-based
Source text: The gene delivery ability of substituted aminoethanols with long chain hydrocarbon (aliphatic) substitutients was studied by transfection of cultured cells and then in vivo by intravenous injection (Table 2 and 3). The substituted aminoethanols have two hydrophilic polar heads connected with one hydrophobic body, which was named bihead lipids. Bihead lipids are proposed to form a monolayer membrane.

[2] = system: CD-1 mice; test: Luciferase expression in organs after intravenous injection of pCILuc complexes; type: in vivo; settings: for Luciferase RLU/20 ul lysate heart / Luciferase RLU/20 ul lysate kidney / Luciferase RLU/20 ul lysate liver / Luciferase RLU/20 ul lysate lung / Luciferase RLU/20 ul lysate spleen: 40 μg pCILuc i.v., 5 h
Description: Substituted aminoethanols (cationic compounds) were prepared as described in Examples 1-34. Their gene delivery ability was studied in vivo by intravenous injection (Table 1 and 2) using a standard method. The preparations were administered via tail vein injection to mice and gene expression determined after 5 hours. Female CD-1 mice, 13-15 g, were purchased from Charles River Inc. Forty microgram of pCILuc complexed with GC lipids or GC lipid:Chol dispersion as indicated weight ratios. After 5 h, mice were sacrificed and organs were collected. Organs were homogenized in 0.5 ml of lysis buffer and 20 μl of supernatant was used for luciferase assay. Luciferase activity was represented as a mean of relative light unit (RLU) of four mice. The lipids were either used alone or combined with cholesterol and complexed with a luciferase reporter gene plasmid by a standard procedure at a range of weight and charge ratios. For the in vivo screen, 40 μg of pCILuc was complexed with the formulation and injected into the mice.
All compounds were evaluated for in vivo activity. Two critical factors were examined, formulation with or without cholesterol and the ratio of cationic lipid to DNA. Cholesterol was tested at 1:1 mole ratio of lipid:chol. The studies were performed with a dose of 40 μg of pCILuc complexed with cationic lipid or lipid: Chol (1:1 mole ratio) injected i.v. into CD-1 mice and then luciferase activity in different organs determined 5 h later. The first evaluation included all of 14 GC-lipids at weight ratios of 2 and 10 (GC lipid to DNA). It was performed by four separated experiments. Each time cationic liposome DOTAP:Chol was used as a standard control.
Measurements were repeated with lipids GC-030, GC-034 and GC-029 at wider weight ratios than the first experiment. Luciferase activity is represented as a mean of relative light unit (RLU) of four mice. WR means weight ratio of GC lipids to DNA. The transfection activity was represented by luciferase activity RLU/organ. […] The transfection activity increased with the increased weight ratio (GC lipids to DNA). Inclusion of cholesterol can change the biodistribution of gene expression in the different organs examined. […] However this function of cholesterol was not seen with GC-034.

[3] = Particle size of substituted aminoethanol-DNA complexes; type: physicochemical
Source text: The component streams intersect in the mixer, whereby shearing and mixing of the DNA and polymer are induced, whereby particles of a complex of DNA and polymer are formed. The resulting preparations may be tested for mean particle size in nanometers and distribution through dynamic light scattering using, for example, a Coulter N4 Plus Submicron Particle Sizer (Coulter Corporation, Miami, Fla.). Mean particle sizes and standard deviaitons can be determined by the unimodal and Size Distribution Processing (SDP), or “intensity” methods.
In the above methods, a laser is directed through a preparation of the particles. Dynamic light scattering is measured as a result of the Brownian motion of the particles. The dynamic light scattering-which is measured then is correlated-to particle size. In the unimodal method, the size distribution is determined by placing the sizes of the particles on a Gaussian curve. In the SDP method, size distribution is determined by a FORTRAN program called CONTIN. Such methods also are described further in the Coulter N4 Plus Submicron Particle Sizer Reference Manual (November 1995).
(§1) Substituted aminoethanols lacking long chain hydrocarbon (aliphatic) substitutients were used to compact plasmid DNA into a colloidal dispersion in water. The size and zeta potential of the colloidal dispersions prepared were determined at different charge ratios for added cation (amine) to anion (DNA phosphate) and are shown in Table 1 and FIG. 4. The colloidal dispersions prepared permit compaction of the DNA into core complexes that are suitable for the invention.

[4] = Zeta potential of substituted aminoethanol-DNA complexes; type: physicochemical; settings: in mV (unit assumed)
Description: as §1

[5] = system: CHO (Sst2) cells; test: Transfection of CHO (Sst2) cells with peptide ligand complexes, luciferase; type: cell-based; settings: polylysine core complexes; FIG. 26
Source text: K14RGD peptide containing the amino acid sequence: KKK KKK KKK KKK KKS CRG DC (SEQ ID NO:5) with at least 90% purity was synthesized at Alpha Diagnostic International (San Antonio, Tex.). Peptide K14SMT contains the amino acid sequence: KKK KKK KKK KKK KKA d-FCY d-WKT CT (SEQ ID NO:6), and peptide K14MST contains the amino acid sequence KKK KKK KKK KKK KKA TDC RGE CF (SEQ ID NO:7). Both SMT and MST peptides were synthesized at Genemed Synthesis Inc (CA, South San Francisco) and oxidized to make circularized peptide. The peptide was purified to 90% purity by the provider. CHO (Sst+) cell line was obtained from Novartis Oncology (Dr. Friedrich Raulf). The cell line was selected to stable express human somatostatin receptor Sst2.
10000 CHO (Sst2) cells were cultured in a serum-containing medium with 0.4 mg/ml G418 for 12 hr before transfection in each well of a 96 well plate. The medium was changed to a serum free medium before transfection. Peptide was added to the cell at indicated amounts from 1 ug to 10 ug/well and incubated for 30 min before 0.5 ug pCIluc2 was added to the same medium to transfect the cells. Lipofectin at 4 ul was used as the control.
At 24 hr, luciferase activity was measured with Promega luciferase assay kit according to the recommended procedure.

Molecule: CCCCCCCCCCCCC(O)CN(CCCN)CCCCCCCCCCCCCN(CCCN)CC(O)CCCCCCCCCCCC (stereo not drawn) [CGP47204A]
Luciferase activity Ave. RLU × 10000/well FBS(+) ([1]; charge ratio (+/−) 0.5): 11 RLU × 10000/well | Luciferase activity Ave. RLU × 10000/well FBS(−) ([1]; charge ratio (+/−) 0.5): 33 RLU × 10000/well | Luciferase activity Ave. RLU × 10000/well FBS(+) ([1]; charge ratio (+/−) 1): 821 RLU × 10000/well | Luciferase activity Ave. RLU × 10000/well FBS(−) ([1]; charge ratio (+/−) 1): 737 RLU × 10000/well | Luciferase activity Ave. RLU × 10000/well FBS(+) ([1]; charge ratio (+/−) 2): 8,079 RLU × 10000/well | Luciferase activity Ave. RLU × 10000/well FBS(−) ([1]; charge ratio (+/−) 2): 8,386 RLU × 10000/well | Luciferase activity Ave. RLU × 10000/well FBS(+) ([1]; charge ratio (+/−) 4): 13,088 RLU × 10000/well | Luciferase activity Ave. RLU × 10000/well FBS(−) ([1]; charge ratio (+/−) 4): 15,009 RLU × 10000/well | Luciferase activity Ave. RLU × 10000/well FBS(+) ([1]; charge ratio (+/−) 6): 22,694 RLU × 10000/well | Luciferase activity Ave. RLU × 10000/well FBS(−) ([1]; charge ratio (+/−) 6): 20,091 RLU × 10000/well | Luciferase activity Ave. RLU × 10000/well FBS(+) ([1]; charge ratio (+/−) 8): 21,644 RLU × 10000/well | Luciferase activity Ave. RLU × 10000/well FBS(−) ([1]; charge ratio (+/−) 8): 17,740 RLU × 10000/well | Luciferase RLU/20 ul lysate heart ([2]; CR 0.5): 38 RLU/20 ul lysate | Luciferase RLU/20 ul lysate kidney ([2]; CR 0.5): 39 RLU/20 ul lysate | Luciferase RLU/20 ul lysate liver ([2]; CR 0.5): 45 RLU/20 ul lysate | Luciferase RLU/20 ul lysate lung ([2]; CR 0.5): 44 RLU/20 ul lysate | Luciferase RLU/20 ul lysate spleen ([2]; CR 0.5): 80 RLU/20 ul lysate | Luciferase RLU/20 ul lysate heart ([2]; CR 1): 41 RLU/20 ul lysate | Luciferase RLU/20 ul lysate kidney ([2]; CR 1): 38 RLU/20 ul lysate | Luciferase RLU/20 ul lysate liver ([2]; CR 1): 53 RLU/20 ul lysate | Luciferase RLU/20 ul lysate lung ([2]; CR 1): 51 RLU/20 ul lysate | Luciferase RLU/20 ul lysate spleen ([2]; CR 1): 467 RLU/20 ul lysate | Luciferase RLU/20 ul lysate heart ([2]; CR 4): 129 RLU/20 ul lysate | Luciferase RLU/20 ul lysate kidney ([2]; CR 4): 386 RLU/20 ul lysate | Luciferase RLU/20 ul lysate liver ([2]; CR 4): 4,583 RLU/20 ul lysate | Luciferase RLU/20 ul lysate lung ([2]; CR 4): 5,009 RLU/20 ul lysate | Luciferase RLU/20 ul lysate spleen ([2]; CR 4): 5,594 RLU/20 ul lysate | Luciferase RLU/20 ul lysate heart ([2]; CR 10): 983 RLU/20 ul lysate | Luciferase RLU/20 ul lysate kidney ([2]; CR 10): 156 RLU/20 ul lysate | Luciferase RLU/20 ul lysate liver ([2]; CR 10): 3,270 RLU/20 ul lysate | Luciferase RLU/20 ul lysate lung ([2]; CR 10): 38,115 RLU/20 ul lysate | Luciferase RLU/20 ul lysate spleen ([2]; CR 10): 6,378 RLU/20 ul lysate | Luciferase RLU/20 ul lysate heart ([2]; CR 20): 96 RLU/20 ul lysate | Luciferase RLU/20 ul lysate kidney ([2]; CR 20): 113 RLU/20 ul lysate | Luciferase RLU/20 ul lysate liver ([2]; CR 20): 429 RLU/20 ul lysate | Luciferase RLU/20 ul lysate lung ([2]; CR 20): 3,258 RLU/20 ul lysate | Luciferase RLU/20 ul lysate spleen ([2]; CR 20): 779 RLU/20 ul lysate | expression in vivo by core complexes ([2]; mouse, in vivo): exhibit expression in vivo

Particle Size ([3]; charge ratio (+/−) 0.5): 136 nm | Particle Size ([3]; charge ratio (+/−) 1.0): 62.6 nm | Particle Size ([3]; charge ratio (+/−) 1.5): 93.4 nm | Particle Size ([3]; charge ratio (+/−) 2.0): 573.5 nm | Particle Size ([3]; charge ratio (+/−) 3.0): 987.4 nm | Particle Size ([3]; charge ratio (+/−) 4.0): 4959 nm | Zeta Potential ([4]; charge ratio (+/−) 0.5): −40.9 | Zeta Potential ([4]; charge ratio (+/−) 1.0): −8.72 | Zeta Potential ([4]; charge ratio (+/−) 1.5): −7.67 | Zeta Potential ([4]; charge ratio (+/−) 2.0): −7.08 | Zeta Potential ([4]; charge ratio (+/−) 3.0): −5.03 | Zeta Potential ([4]; charge ratio (+/−) 4.0): −4.87
Molecule: CCNCCCNCCCCNCCCNCC [CGP 41660A]

Particle Size ([3]; charge ratio (+/−) 1.0): 77.6 nm | Particle Size ([3]; charge ratio (+/−) 1.5): 192.4 nm | Particle Size ([3]; charge ratio (+/−) 2.0): 293.3 nm | Particle Size ([3]; charge ratio (+/−) 3.0): 3946.4 nm | Particle Size ([3]; charge ratio (+/−) 4.0): 4304.7 nm | Zeta Potential ([4]; charge ratio (+/−) 0.5): −17.6 | Zeta Potential ([4]; charge ratio (+/−) 1.0): −15.4 | Zeta Potential ([4]; charge ratio (+/−) 1.5): −9.1 | Zeta Potential ([4]; charge ratio (+/−) 2.0): −8.71 | Zeta Potential ([4]; charge ratio (+/−) 3.0): −6.01 | Zeta Potential ([4]; charge ratio (+/−) 4.0): −5.52
Molecule: C(CNCCC1CCCCN1)CNCCC1CCCCN1 (stereo not drawn) [CGP 61670A]

Particle Size ([3]; charge ratio (+/−) 0.5): 176.7 nm | Particle Size ([3]; charge ratio (+/−) 1.0): 77.6 nm | Particle Size ([3]; charge ratio (+/−) 1.5): 90.3 nm | Particle Size ([3]; charge ratio (+/−) 2.0): 206.8 nm | Particle Size ([3]; charge ratio (+/−) 3.0): 1941.8 nm | Particle Size ([3]; charge ratio (+/−) 4.0): 2526.8 nm | Zeta Potential ([4]; charge ratio (+/−) 0.5): −47.3 | Zeta Potential ([4]; charge ratio (+/−) 1.0): −30 | Zeta Potential ([4]; charge ratio (+/−) 1.5): −25 | Zeta Potential ([4]; charge ratio (+/−) 2.0): −17.1 | Zeta Potential ([4]; charge ratio (+/−) 3.0): −11.7 | Zeta Potential ([4]; charge ratio (+/−) 4.0): −9.78
Molecule: CCN(CCCNCCCNCN(CC)C(=O)CN)C(=O)CN [CGP 61750A]

Molecule: KKK KKK KKK KKK KKA TDC RGE CF [MST]
expression, effect of peptide ligand [5]: not observed

Molecule: KKK KKK KKK KKK KKA d-FCY d-WKT CT [SMT]
expression, effect of peptide ligand [5]: increased expression
